Assay results reported in PubChem BioAssay (NCI).
Several values for one entry are separate records, joined by “and”; a condition that tells them apart may be missing. Equal values may be shown once.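 These data come from cells grown in 96-well plates and exposed to compound for 48 hours at five concentrations. GI50 is the concentration that inhibits growth by half. TGI: total growth inhibition.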

Columns and labels:
Experiment in all cases: DTP human tumour cell line panel, 48 h
[1] = tested on: EKVX NSCLC
[2] = tested on: HL-60(TB) leukemia
[3] = tested on: HOP-62 NSCLC
[4] = tested on: HOP-92 NSCLC
[5] = tested on: HT29 colon
[6] = tested on: IGROV1 ovarian
[7] = tested on: MDA-MB-435
[8] = tested on: RPMI-8226 leukemia
[9] = tested on: RXF 393 renal
[10] = tested on: UO-31 renal

## Cc1ccc([N+](=O)[O-])c2c(NCCNC(=O)Cn3ccnc3[N+](=O)[O-])ccnc12
[1]
  TGI: > 100 µM
[2]
  TGI: > 100 µM
[3]
  TGI: 48.7 µM
[4]
  TGI: 78.1 µM
[5]
  TGI: > 100 µM
[6]
  TGI: 86.6 µM
[7]
  TGI: > 100 µM
[8]
  TGI: > 100 µM
[9]
  TGI: 16.5 µM
[10]
  TGI: > 100 µM

## C/C=C(\C)C(=O)N[C@H]1CC[C@]2(C)C3CC[C@@]4(C)C(CC[C@@H]4C(C)N(C)C)C3CCC2[C@H]1OC(C)=O (some centres undefined)
[1]
  GI50: 2.06 µM
  TGI: 8.62 µM
[2]
  GI50: 1.88 µM
  TGI: 4.52 µM
[3]
  GI50: 1.76 µM
  TGI: 3.46 µM
[4]
  GI50: 1.24 µM
  TGI: 3.47 µM
[5]
  GI50: 0.362 µM
  TGI: 1.34 µM
[6]
  GI50: 2.38 µM
  TGI: 8.86 µM
[7]
  GI50: 1.13 µM
  TGI: 2.84 µM
[8]
  GI50: 1.62 µM
  TGI: 4.68 µM
[9]
  GI50: 1.57 µM
  TGI: 3.03 µM
[10]
  GI50: 1.24 µM
  TGI: 2.54 µM

## CCCN(CCC)C(=O)C1=Cc2ccc(-c3ccc(C(=O)N4CCCC4)cc3)cc2N=C(N)C1
[1]
  GI50: 11.8 µM
  TGI: 57.1 µM
[2]
  GI50: 3.46 µM
  TGI: 15.6 µM
[3]
  GI50: 12.6 µM
  TGI: 65.4 µM
[4]
  GI50: 7.99 µM
  TGI: 54.3 µM
[5]
  GI50: 4.28 µM
  TGI: 28.6 µM
[6]
  GI50: 14.4 µM
  TGI: 54.8 µM
[7]
  GI50: 2.51 µM
  TGI: 7.58 µM
[8]
  GI50: 7.66 µM
  TGI: 36.4 µM
[9]
  GI50: 5.13 µM
  TGI: 19.3 µM
[10]
  GI50: 9.15 µM
  TGI: 32.8 µM

## COc1cccc(C2c3cc4c(cc3OC(C)(O)C2C)OCO4)c1O (centres undefined)
[1]
  TGI: > 100 µM
[2]
  TGI: 28 µM
[3]
  TGI: 44.4 µM
[4]
  TGI: 47.3 µM
[5]
  TGI: 17.4 µM
[6]
  TGI: 69.2 µM
[7]
  TGI: > 100 µM
[8]
  TGI: > 100 µM
[9]
  TGI: 34.1 µM
[10]
  TGI: 52.6 µM

## Cn1ccnc1C(=O)/C=C/c1ccc(C(=O)Nc2ccc(Cl)cc2)cc1
[1]
  GI50: 2.34 µM
  TGI: 22 µM
[2]
  GI50: 0.669 µM
  TGI: 1.97 µM
[3]
  GI50: 1.04 µM
  TGI: > 33.3 µM
[4]
  GI50: 1.14 µM
  TGI: 27 µM
[5]
  GI50: 0.946 µM
  TGI: > 33.3 µM
[6]
  GI50: 0.855 µM
  TGI: 2.62 µM
[7]
  GI50: 1.37 µM
  TGI: > 33.3 µM
[8]
  GI50: 0.431 µM
  TGI: 1.35 µM
[9]
  GI50: 0.836 µM
  TGI: 2.66 µM
[10]
  GI50: 0.905 µM
  TGI: 4.34 µM

## O=C(Nc1ccccc1O)c1cccc(NC2=C(Cl)C(=O)N(Cc3ccccc3)C2=O)c1
[1]
  GI50: 15.1 µM
  TGI: 28.8 µM
[2]
  GI50: 1.5 µM
  TGI: 8.5 µM
[3]
  GI50: 7.98 µM
  TGI: 20.6 µM
[4]
  GI50: 10.5 µM
  TGI: 24.3 µM
[5]
  GI50: 7.05 µM
  TGI: > 100 µM
[6]
  GI50: 2.87 µM
  TGI: 8.65 µM
[7]
  GI50: 6.03 µM
  TGI: 17.7 µM
[8]
  GI50: 0.778 µM
  TGI: 3.4 µM
[9]
  GI50: 1.89 µM
  TGI: 5.28 µM
[10]
  GI50: 8.53 µM
  TGI: 25.1 µM

## COC(=O)NC1C(C)OC(OC2C/C=C(/C)C3C=CC4C(OC5CC(OC6CC(O)C(OC7CC(O)C(OC)C(C)O7)C(C)O6)C(O)C(C)O5)C(C)CC(C)C4C3(C)/C(O)=C3\C(=O)OC4(CC(C)C(CO)=CC4/C=C\2C)C3=O)CC1(C)[N+](=O)[O-] (centres undefined)
[1]
  GI50: 16.7 µM
  TGI: 50 µM and 19.3 µM
[2]
  GI50: 7.94 µM
  TGI: 21.3 µM and 24.2 µM
[3]
  GI50: 9.62 µM
  TGI: 18.4 µM and 46.3 µM
[4]
  GI50: 9.95 µM
  TGI: 19.7 µM and 32.7 µM
[5]
  GI50: 8.34 µM
  TGI: 15.9 µM and 35.9 µM
[6]
  GI50: 12.7 µM
  TGI: 34 µM and 28.5 µM
[7]
  TGI: 17 µM
[8]
  GI50: 15.7 µM
  TGI: 50 µM and 26.9 µM
[9]
  GI50: 8.97 µM
  TGI: 21.4 µM and 30.7 µM
[10]
  GI50: 14.4 µM
  TGI: 50 µM and 34.3 µM

## CC1=NN(c2ccccc2)C(=O)C1N=Nc1ccc([As](=O)(O)O)c(O)c1 (centres undefined)
[1]
  TGI: > 100 µM
[2]
  TGI: > 100 µM
[3]
  TGI: > 100 µM
[4]
  TGI: > 100 µM
[5]
  TGI: > 100 µM
[6]
  TGI: > 100 µM
[7]
  TGI: > 100 µM
[8]
  TGI: > 100 µM
[9]
  TGI: > 100 µM
[10]
  TGI: > 100 µM

## Cc1cc(N2CCCCC2)nc(N(CCCNc2ccnc3cc(Cl)ccc23)Cc2ccco2)n1
[1]
  GI50: 2.42 µM
  TGI: 11.7 µM
[2]
  GI50: 1.94 µM
  TGI: 4.51 µM
[3]
  GI50: 1.38 µM
  TGI: 4.1 µM
[4]
  GI50: 1.38 µM
  TGI: 3.95 µM
[5]
  GI50: 1.2 µM
  TGI: 4.95 µM
[6]
  GI50: 1.82 µM
  TGI: 6.57 µM
[7]
  GI50: 1.65 µM
  TGI: 3.68 µM
[8]
  GI50: 1.83 µM
  TGI: 4.46 µM
[9]
  GI50: 1.52 µM
  TGI: 3.44 µM
[10]
  GI50: 1.17 µM
  TGI: 2.59 µM

## Oc1ccc(-c2nnc3sc(-c4ccc(F)c(Oc5ccccc5)c4)nn23)cc1
[1]
  GI50: 34.8 µM
  TGI: > 100 µM
[2]
  GI50: > 100 µM
  TGI: > 100 µM
[3]
  GI50: 21.2 µM
  TGI: 42.7 µM
[4]
  GI50: 26.1 µM
  TGI: > 100 µM
[5]
  GI50: 27.4 µM
  TGI: > 100 µM
[6]
  GI50: 47.4 µM
  TGI: > 100 µM
[7]
  GI50: 68.6 µM
  TGI: > 100 µM
[8]
  GI50: 28.4 µM
  TGI: > 100 µM
[9]
  GI50: 7.47 µM
  TGI: 25.3 µM
[10]
  GI50: 5.62 µM
  TGI: > 100 µM

## COc1cc(C(=O)c2ccc3c(c2)OCO3)cc(OC)c1OC
[1]
  GI50: 3.77 µM
  TGI: > 100 µM
[2]
  GI50: 0.609 µM
  TGI: 9.02 µM
[3]
  GI50: 3.34 µM
  TGI: > 100 µM
[4]
  GI50: 2.48 µM
  TGI: > 100 µM
[5]
  GI50: 0.502 µM
  TGI: 15.5 µM
[6]
  GI50: 1.45 µM
  TGI: > 45.5 µM
[7]
  GI50: 0.2 µM
  TGI: 0.502 µM
[8]
  GI50: 2.64 µM
  TGI: > 42 µM
[9]
  GI50: 2.88 µM
  TGI: 17.1 µM
[10]
  GI50: 2.93 µM
  TGI: 38.2 µM

## COc1cc2nc(-c3cnc(N(C)C)nc3)nc(NC3CCN(Cc4ccccc4)CC3)c2cc1OC
[1]
  GI50: 1.75 µM
  TGI: 3.66 µM
[2]
  GI50: 1.51 µM
  TGI: 3.75 µM
[3]
  GI50: 1.69 µM
  TGI: 3.48 µM
[4]
  GI50: 1.03 µM
  TGI: 2.46 µM
[5]
  GI50: 1.08 µM
  TGI: 2.54 µM
[6]
  GI50: 1.73 µM
  TGI: 3.43 µM
[7]
  GI50: 1.38 µM
  TGI: 2.81 µM
[8]
  GI50: 1.22 µM
  TGI: 3.67 µM
[9]
  GI50: 1.63 µM
  TGI: 3.49 µM
[10]
  GI50: 1.49 µM
  TGI: 3.05 µM

## CC(=O)N1N=C2/C(=C/c3ccccc3)CC(C)CC2C1c1ccccc1 (centres undefined)
[1]
  GI50: 11.9 µM
  TGI: 27.3 µM
[2]
  GI50: 8.82 µM
  TGI: 32.1 µM
[3]
  GI50: 16.6 µM
  TGI: 32.6 µM
[4]
  GI50: 13.9 µM
  TGI: 31.2 µM
[5]
  GI50: 12.9 µM
  TGI: 29.9 µM
[6]
  GI50: 12.1 µM
  TGI: 41.9 µM
[7]
  GI50: 11.2 µM
  TGI: 27.7 µM
[8]
  GI50: 9.54 µM
  TGI: 76.1 µM
[9]
  GI50: 25.6 µM
  TGI: > 100 µM
[10]
  GI50: 12.8 µM
  TGI: 31.1 µM

## O=c1c2cccc(Cl)c2sc2c(NCCCNCCO)nc3ccccc3c12
[1]
  GI50: 3.4 µM
  TGI: 17.5 µM
[2]
  GI50: 2.4 µM
  TGI: 5.49 µM
[3]
  GI50: 2.87 µM
  TGI: 17.1 µM
[4]
  GI50: 1.26 µM
  TGI: 7.82 µM
[5]
  GI50: 1.68 µM
  TGI: 3.37 µM
[6]
  GI50: 0.941 µM
  TGI: 6.86 µM
[7]
  GI50: 1.82 µM
  TGI: 3.55 µM
[8]
  GI50: 2.1 µM
  TGI: 5.45 µM
[9]
  GI50: 1.69 µM
  TGI: 4 µM
[10]
  GI50: 1.02 µM
  TGI: 3.95 µM
